In patent US10072025B2, “Ethyl N-boc piperidinyl pyrazolo pyridones as Janus kinase inhibitors” (Merck Sharp & Dohme Corp., priority 2014, dated 2018):

Columns and labels:
JAK1 = JAK1 (Homo sapiens (Human), UniProt P23458); assay: Jak Biochemical HTRF Assay (JAK1); settings: recombinant purified GST-tagged catalytic domain; HTRF; [ATP] 31.8 μM; [E] 1.405 nM
Description: (§1) Jak Biochemical HTRF Assay Protocol
(§2) The ability of compounds to inhibit the activity of JAK1, JAK2, JAK3, and Tyk2 was measured using a recombinant purified GST-tagged catalytic domain for each enzyme (Invitrogen JAK1 #M4290, JAK2 #M4290, JAK3 #M4290, Tyk2 #M4290) in an HTRF format biochemical assay. […] The basic assay protocol is as follows: First, 250 nL of diluted compounds in DMSO were dispensed into the wells of a dry 384-well Black plate (Greiner #781076) using a Labcyte Echo 555 acoustic dispenser. Subsequent reagent additions employed an Agilent Bravo. Next, 18 μL of 1.11× enzyme and 1.11× substrate in 1× assay buffer (Invitrogen kinase buffer # PV3189, 2 mM DTT, 0.05% BSA) were added to the wells and shaken and then preincubated for 30 minutes at room temperature to allow compound binding to equilibrate. After equilibration, 2 μL of 10×ATP in 1× assay buffer was added to initiate the kinase reaction and the plates were shaken and then incubated at room temperature for 120 minutes. At the end of the incubation, 20 μL of 2× stop buffer (streptavidin-Dylight 650 (Thermo #84547B/100 mL), Eu-tagged pY20 antibody (Perkin Elmer #AD0067), EDTA, HEPES, and Triton) was added to quench the reaction. Plates were shaken and centrifuged and then incubated 60 minutes at room temperature and then read on a Perkin Elmer Envision (Xex=337 nm, λem=665 and 615 nm, TRF delay time=20 μs). HTRF signal=10,000*665 nm reading/615 nm reading. After normalization to untreated controls, the percent inhibition of the HTRF signal at each compound concentration was calculated. The plot of percent inhibition versus the log of compound concentration was fit with a 4-parameter dose response equation to calculate IC50 values.

JAK2 = JAK2 (Homo sapiens (Human), UniProt O60674); assay: Jak Biochemical HTRF Assay (JAK2); settings: recombinant purified GST-tagged catalytic domain, [ATP] 8.5 μM, [E] 0.052 nM
Sequence of JAK2 (O60674 849-1124): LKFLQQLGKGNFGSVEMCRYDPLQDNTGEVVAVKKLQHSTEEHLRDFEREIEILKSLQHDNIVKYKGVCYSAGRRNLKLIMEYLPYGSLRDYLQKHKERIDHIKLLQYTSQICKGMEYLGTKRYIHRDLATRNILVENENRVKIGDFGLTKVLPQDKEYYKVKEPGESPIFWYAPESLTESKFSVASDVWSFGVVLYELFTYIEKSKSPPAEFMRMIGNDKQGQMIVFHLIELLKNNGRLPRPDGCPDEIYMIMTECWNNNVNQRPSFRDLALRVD
Description: as §1, §2

Sequence of JAK1 (P23458 875-1153): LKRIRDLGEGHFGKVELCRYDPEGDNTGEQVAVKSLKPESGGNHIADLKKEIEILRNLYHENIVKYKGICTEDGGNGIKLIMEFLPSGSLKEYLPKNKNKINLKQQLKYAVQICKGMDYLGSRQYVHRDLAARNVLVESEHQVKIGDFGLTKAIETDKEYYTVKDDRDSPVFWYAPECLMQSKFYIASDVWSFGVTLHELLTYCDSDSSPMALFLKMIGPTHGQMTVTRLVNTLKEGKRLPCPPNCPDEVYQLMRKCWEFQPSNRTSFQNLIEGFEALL

| SMILES | IC50 (JAK1) [nM] | IC50 (JAK2) [nM] |
| --- | --- | --- |
| CCC1(n2nc(Nc3ccc(C(O)C(F)(F)F)cc3)c3c(=O)[nH]ccc32)CCN(C(=O)OC(C)(C)C)CC1 (centres unmarked) [Example 2-43, tert-butyl 4-ethyl-4-(4-oxo-3-((4-(2,2,2-trifluoro-1-hydroxyethyl)phenyl)amino)-4,5-dihydro-1H-pyrazolo[4,3-c]pyridin-1-yl) piperidine-1-carboxylate] | 0.9 | 2.91 |
| CCC1(n2nc(Nc3ccc(C(=O)N4[C@@H](C)COC[C@@H]4C)c(C)c3)c3c(=O)[nH]ccc32)CCN(C(=O)OC(C)(C)C)CC1 (single isomer, unassigned) [Example 2-19, tert-butyl 4-(3-(4-((3S,5S or 3R,5R)-3,5-dimethylmorpholine-4-carbonyl)-3-methylphenylamino)-4-oxo-4,5-dihydropyrazolo[4,3-c]pyridin-1-yl)-4-ethylpiperidine-1-carboxylate] | 0.85 | – |
| CCC1(n2nc(Nc3ccc(C(=O)N4CCCOC(C)C4)c(C)c3)c3c(=O)[nH]ccc32)CCN(C(=O)OC(C)(C)C)CC1 (single isomer, unassigned) [Example 3-22, tert-butyl 4-ethyl-4-[3-({3R or 3S-methyl-4-[(2-methyl-1,4-oxazepan-4-yl)carbonyl]phenyl}amino)-4-oxo-4,5-dihydro-1H-pyrazolo [4,3-c]pyridin-1-yl] piperidine-1-carboxylate] | – | 0.87 |
| CCC1(n2nc(Nc3ccc(C(=O)N4CCCOC(C)C4)c(C)c3)c3c(=O)[nH]ccc32)CCN(C(=O)OC(C)(C)C)CC1 (single isomer, unassigned) [Example 3-23, tert-butyl 4-ethyl-4-[3-({3R or 3S-methyl-4-[(2-methyl-1,4-oxazepan-4-yl)carbonyl]phenyl}amino)-4-oxo-4,5-dihydro-1H-pyrazolo [4,3-c]pyridin-1-yl] piperidine-1-carboxylate] | – | 0.7 |
| CCC1(n2nc(Nc3ccc(S(=O)(=O)N4CCC[C@H]4C)cc3)c3c(=O)[nH]ccc32)CCN(C(=O)OC(C)(C)C)CC1 (single isomer, unassigned) [Example 2-39, (R or S)-tert-butyl 4-ethyl-4-(3-(4-(2-methylpyrrolidin-1-ylsulfonyl)phenylamino)-4-oxo-4,5-dihydropyrazolo[4,3-c]pyridin-1-yl) piperidine-1-carboxylate] | 2.13 | – |
| CCC1(n2nc(Nc3ccc(S(=O)(=O)N4CCC[C@@H]4C)cc3)c3c(=O)[nH]ccc32)CCN(C(=O)OC(C)(C)C)CC1 (single isomer, unassigned) [Example 2-38, (S or R)-tert-butyl 4-ethyl-4-(3-(4-(2-methylpyrrolidin-1-ylsulfonyl)phenylamino)-4-oxo-4,5-dihydropyrazolo[4,3-c]pyridin-1-yl) piperidine-1-carboxylate] | 2.38 | – |

Next, values leading:

| IC50 (JAK1) [nM] | IC50 (JAK2) [nM] | SMILES |
| --- | --- | --- |
| 0.56 | 0.74 | CCC1(n2nc(Nc3ccc(C(=O)N4CCOCC4)c(F)c3)c3c(=O)[nH]ccc32)CCN(C(=O)OC(C)(C)C)CC1 [Example 2-12, tert-butyl 4-ethyl-4-(3-((3-fluoro-4-(morpholine-4-carbonyl)phenyl)amino)-4-oxo-4,5-dihydro-1H-pyrazolo[4,3-c]pyridin-1-yl) piperidine-1-carboxylate] |
| 0.61 | – | CCC1(n2nc(Nc3ccc(C(=O)N4[C@H](C)COC[C@@H]4C)c(C)c3)c3c(=O)[nH]ccc32)CCN(C(=O)OC(C)(C)C)CC1 [Example 2-18, tert-butyl 4-(3-(4-((3S,5R)-3,5-dimethylmorpholine-4-carbonyl)-3-methylphenylamino)-4-oxo-2,3,4,5-tetrahydropyrazolo[4,3-c]pyridin-1-yl)-4-ethylpiperidine-1-carboxylate] |
| 0.79 | – | CCC1(n2nc(Nc3ccc(C(=O)N4[C@H](C)COC[C@H]4C)c(C)c3)c3c(=O)[nH]ccc32)CCN(C(=O)OC(C)(C)C)CC1 (single isomer, unassigned) [Example 2-20, tert-butyl 4-(3-(4-((3R,5R or 3S,5S)-3,5-dimethylmorpholine-4-carbonyl)-3-methylphenylamino)-4-oxo-4,5-dihydropyrazolo[4,3-c]pyridin-1-yl)-4-ethylpiperidine-1-carboxylate] |
